Data set [1] deals with Staphylococcus aureus. Briefly: Antibiofilm activity against Staphylococcus aureus CMCC 26003 assessed as reduction in biofilm formation at 0.5 to 8 times MIC incubated for 24 hrs by crystal violet staining based analysis. In kind it is functional. The arrangement: scale not given: the % may be the effect or the level left.
The test system of data set [2] is Escherichia coli. Briefly: Antimicrobial activity against Escherichia coli ATCC 25922 assessed as reduction in microbial growth incubated for 18 hrs by broth microdilution method. Format: functional.
Data set [3] has as its system Acinetobacter baumannii. Briefly: Antimicrobial activity against Acinetobacter baumannii ATCC19606 assessed as reduction in microbial growth incubated for 18 hrs by broth microdilution method. In kind it is functional. (In general: Dilution methods test growth across graded concentrations, often in twofold steps.)
In another data set the test system is Salmonella enteritidis. Briefly: Antimicrobial activity against Salmonella enterica subsp. enterica serovar Enteritidis ATCC 14028 assessed as reduction in microbial growth incubated for 18 hrs by broth microdilution method. Format: functional.
A short description of data set [4]: Hemolytic activity at human Erythrocyte assessed as hemolysis at 100 microg/ml. In kind it is toxicity, cell-based. The note with it: erythrocytes, at 100 µg/mL, read-out: Activity.
Data set [5] concerns Escherichia coli. Briefly: Antimicrobial activity against Escherichia coli ATCC 25922 assessed as fold increase in MIC measured at 8 hrs in presence of mouse serum. In kind it is functional.
Data set [6] relates to Staphylococcus aureus. Briefly: Antimicrobial activity against Staphylococcus aureus CMCC 26003 assessed as fold increase in MIC measured at 8 hrs in presence of mouse serum. In kind it is functional.
The next data set concerns RAW264.7. Briefly: Cytotoxicity against mouse RAW264.7 cells upto 200 microg/ml by MTT assay. The note with it: dose < 200 µg/ml. In kind it is toxicity, cell-based.
Data set [7] concerns Escherichia coli. Briefly: Antimicrobial activity against Escherichia coli ATCC 25922 assessed as bacterial eradication at 5 times MIC measured within 30 mins. Format: functional, organism-based.
The test system of data set [8] is Staphylococcus aureus. Briefly: Antimicrobial activity against Staphylococcus aureus CMCC 26003 assessed as bacterial eradication at 5 times MIC measured within 120 mins. Format: functional, organism-based.
Data set [9] concerns Escherichia coli. Briefly: Bactericidal activity against Escherichia coli ATCC 25922 at 5 times MIC measured within 120 mins. Format: functional, organism-based.
In data set [10] the test system is Acinetobacter baumannii. Briefly: Antibiofilm activity against Acinetobacter baumannii ATCC 19606 assessed as biofilm eradication incubated for 24 hrs by crystal violet staining based analysis. In kind it is functional, organism-based.
Data set [11] deals with Acinetobacter baumannii. Briefly: Antibiofilm activity against Acinetobacter baumannii ATCC 19606 assessed as inhibition of biofilm formation at 0.5 times MIC incubated for 48 hrs by crystal violet staining based analysis. In kind it is functional.
The test system of data set [12] is Staphylococcus aureus. Briefly: Antipersister-activity against Staphylococcus aureus CMCC 26003 assessed as elimination of persister cells at 50 times MIC preincubated adherent persistent cells with colistin incubation for 24 hrs. In kind it is functional.
Data set [13] has as its system Cell membrane. Briefly: Induction of cell membrane permeabilization in Escherichia coli ATCC 25922 by propidium iodide dye-based fluorescence assay. In kind it is subcellular.
The subject of data set [14] is Cell membrane. Briefly: Induction of cell membrane permeabilization in Escherichia coli ATCC 25922 at 2 times MIC measured for 1 hr by propidium iodide dye-based fluorescence assay. Format: subcellular.
The subject of data set [15] is Escherichia coli. Briefly: Antimicrobial activity against Escherichia coli ATCC 25922 assessed as fold increase in MIC incubated for 18 hrs in presence of phosphatidylglycerol. In kind it is functional.
In data set [16] the test system is Acinetobacter baumannii. Briefly: Antimicrobial activity against Acinetobacter baumannii ATCC 19606 assessed as fold increase in MIC incubated for 18 hrs in presence of phosphatidylglycerol. In kind it is functional.
For data set [17], the system named is Escherichia coli. Briefly: Antimicrobial activity against Escherichia coli ATCC 25922 assessed as fold increase in MIC incubated for 18 hrs in presence of cardiolipin. Format: functional.
Data set [18] has as its system Acinetobacter baumannii. Briefly: Antimicrobial activity against Acinetobacter baumannii ATCC 19606 assessed as fold increase in MIC incubated for 18 hrs in presence of cardiolipin. In kind it is functional.
Data set [19] concerns Escherichia coli. Briefly: Antimicrobial activity against Escherichia coli ATCC 25922 incubated for 18 hrs in presence of CCCP. Format: functional, organism-based.
Data set [20] has as its system Staphylococcus aureus. Briefly: Antimicrobial activity against Staphylococcus aureus CMCC 26003 incubated for 18 hrs in presence of CCCP. In kind it is functional, organism-based.
For data set [21], the system named is Escherichia coli. Briefly: Antibacterial activity against Escherichia coli ATCC 25922 at 1 times MIC in presence of exogenous DNA. In kind it is functional, organism-based.
In data set [22] the test system is Acinetobacter baumannii. Briefly: In vivo antibacterial activity against Acinetobacter baumannii ATCC19606 infected in BALB/c mouse assessed as survival at 15 mg/kg, ip administered for 12 hrs and measured after 3 hrs. Format: functional. The note with it: time 15 hrs.
Data set [23] deals with Acinetobacter baumannii. Briefly: In vivo antibacterial activity against Acinetobacter baumannii ATCC19606 infected in BALB/c mouse assessed as reduction in bacterial load in lung at 15 mg/kg, ip measured after 3 hrs. Format: functional, organism-based.
In a further data set the test system is Peritoneal macrophage. Briefly: Cytotoxicity against mouse Peritoneal macrophage cells assessed as survival rate at 100 microg/ml. The note with it: read-out: Survival. In kind it is functional.
Another data set deals with HaCaT. Briefly: Cytotoxicity against human HaCaT cells assessed as survival rate at 100 microg/ml. Format: functional. The conditions noted are these: read-out: Survival.
Data set [24] deals with T1, Trypsin (Homo sapiens, UniProt P07477+P07478+P35030). Briefly: Stability of compound assessed as trypsin (unknown origin) mediated drug degradation […] measured at 6 hrs by RP-HPLC analysis. Format: ADME, protein assay. The note with it: read-out: Activity.
Data set [25] deals with Staphylococcus aureus. Briefly: Antimicrobial activity against Staphylococcus aureus CMCC 26003 at 5 times MIC measured at 180 mins. Format: functional, organism-based.
The subject of data set [26] is Acinetobacter baumannii. Briefly: Antibiofilm activity against Acinetobacter baumannii ATCC 19606 assessed as inhibition of biofilm formation at 4 to 8 times MIC incubated for 48 hrs by crystal violet staining based analysis. Format: functional.
The test system of data set [27] is Cell membrane. Briefly: Induction of […] membrane permeabilization in Escherichia coli ATCC 25922 at 5 times MIC measured for 1 hr by NPN-dye based fluorescence analysis. In kind it is subcellular.
Data set [28] relates to Escherichia coli. Briefly: Antimicrobial activity against Escherichia coli ATCC 25922 assessed as fold increase in MIC incubated for 18 hrs in presence of LPS. Format: functional.
Data set [29] concerns Acinetobacter baumannii. Briefly: Antimicrobial activity against Acinetobacter baumannii ATCC 19606 assessed as fold increase in MIC incubated for 18 hrs in presence of LPS. Format: functional.
Data set [30] deals with T1, Trypsin. Briefly: Stability of compound assessed as trypsin (unknown origin) mediated drug degradation […] measured at 24 hrs by RP-HPLC analysis. In kind it is ADME, protein assay. The conditions noted are these: read-out: Activity.
The subject of data set [31] is Escherichia coli. Briefly: Antimicrobial activity against Escherichia coli ATCC 25922 measured at 8 hrs in presence of mouse serum. In kind it is functional, organism-based.
The subject of data set [32] is Acinetobacter baumannii. Briefly: Antipersister-activity against Acinetobacter baumannii ATCC 19606 assessed as elimination of persister cells at 8 times MIC preincubated adherent persistent cells with colistin incubation for 24 hrs. In kind it is functional.
The test system of data set [33] is Cell membrane. Briefly: Induction of outer membrane permeabilization in Escherichia coli ATCC 25922 at 5 times MIC measured for 1 hr by NPN-dye based fluorescence analysis. Format: subcellular.
Data set [34] concerns Escherichia coli. Briefly: Antibacterial activity against Escherichia coli ATCC 25922 at 1 times MIC in presence of 25 microg/ml exogenous DNA. Format: functional, organism-based.

Molecules are shown by their SMILES. The source made the active and inactive calls. No cut-off for these calls is given here. Positions of bridges follow the written chain, without caps; N, C: chain ends. Residues, ends and D or L forms follow the SMILES beside them.

What is called MIC is the least concentration at which growth counts as inhibited. With `CC[C@H](C)[C@H](NC(=O)[C@H](CCCNC(=N)N)NC(=O)[C@H](CO)NC(=O)[C@H](Cc1c[nH]cn1)NC(=O)[C@H](CCCNC(=N)N)NC(=O)[C@H](CC(C)C)NC(=O)[C@@H](NC(=O)[C@H](CCCNC(=N)N)NC(=O)CNC(=O)[C@H](CC(C)C)NC(=O)[C@H](CCC(N)=O)NC(=O)[C@H](CCCCN)NC(=O)[C@H](CCCNC(=N)N)NC(=O)[C@@H](NC(=O)[C@H](CCCCN)NC(=O)[C@H](CCCCN)NC(=O)[C@@H](N)Cc1ccccc1)C(C)C)C(C)C)C(=O)N[C@H](C(=O)N[C@H](C(=O)NCC(=O)NCC(=O)N[C@@H](CCCNC(=N)N)C(=O)N[C@@H](CCSC)C(=O)N[C@@H](CCCNC(=N)N)C(=O)N[C@@H](Cc1ccccc1)C(=O)O)C(C)C)[C@@H](C)O`, the Activity was 40% in the data set with Staphylococcus aureus [1]; “Non-toxic” in the data set with RAW264.7; 50% in the data set with Staphylococcus aureus [12]; “Dose-dependent-effect” in the data set with Cell membrane [13]; above 90% with Cell membrane [14]; “Dose-dependent-effect” with Escherichia coli [19]. Also, the figures for the Activity entry in the data set with Staphylococcus aureus [20] and with Acinetobacter baumannii [22] were “Dose-dependent-effect” and above 60%, respectively. In addition, the MIC with Escherichia coli [2] came out at 2.34 µg/mL; in the data set on Acinetobacter baumannii [3], 4.69 µg/mL; with Salmonella enteritidis, 1.17 µg/mL. In addition, the hemolysis at 100 microg/ml in data set [4] was below 5%. For the same molecule, the “fold change (FC)” value amounted to 8 in the data set on Escherichia coli [5]; 16 in the data set on Staphylococcus aureus [6]; 16 with Escherichia coli [15]; 16 in the data set with Acinetobacter baumannii [16]; 8 in the data set on Escherichia coli [17]; 8 with Acinetobacter baumannii [18]. The result with Escherichia coli [7], in the data set with Staphylococcus aureus [8], with Escherichia coli [9], in the data set with Acinetobacter baumannii [10], in the data set with Escherichia coli [21] and in the data set with Acinetobacter baumannii [23] was Active. In the data set with Acinetobacter baumannii [11], the “inhibition (INH)” value is given as 10%.
Take `CC[C@H](C)[C@H](NC(=O)[C@H](CCCNC(=N)N)NC(=O)[C@H](CO)NC(=O)[C@@H]1CSSC[C@H](N)C(=O)N[C@@H](Cc2ccccc2)C(=O)N[C@@H](CCCCN)C(=O)N[C@@H](CCCCN)C(=O)N[C@@H](C(C)C)C(=O)N[C@@H](CCCNC(=N)N)C(=O)N[C@@H](CCCCN)C(=O)N[C@@H](CCC(N)=O)C(=O)N[C@@H](CC(C)C)C(=O)NCC(=O)N[C@@H](CCCNC(=N)N)C(=O)N[C@@H](C(C)C)C(=O)N[C@@H](CC(C)C)C(=O)N[C@@H](CCCNC(=N)N)C(=O)N[C@@H](Cc2c[nH]cn2)C(=O)N1)C(=O)N[C@H](C(=O)N[C@H](C(=O)NCC(=O)NCC(=O)N[C@@H](CCCNC(=N)N)C(=O)N[C@@H](CCSC)C(=O)N[C@@H](CCCNC(=N)N)C(=O)N[C@@H](Cc1ccccc1)C(=O)O)C(C)C)[C@@H](C)O` (H-CFKKVRKQLGRVLRHCSRITVGGRMRF-OH; disulfide 1-16): the MIC in the data set on Escherichia coli [2] is 4.69 µg/mL; with Acinetobacter baumannii [3], 18.8 µg/mL; with Salmonella enteritidis it was 9.38 µg/mL. In [4], the hemolysis at 100 microg/ml was below 5%. In addition, the viability at 100 µg/mL in the data set with Peritoneal macrophage and in the data set with HaCaT was above 80% each time. Besides, the metabolised at 6 h at Trypsin [24] stood at 68%. In the data set on Staphylococcus aureus [25], the result was inactive. For the same molecule, the outcome with Acinetobacter baumannii [10], in the data set on Cell membrane [27], with Escherichia coli [21] and in the data set on Acinetobacter baumannii [23] was Active. Further, the figures for the “inhibition (INH)” value in the data set on Acinetobacter baumannii [11] and in the data set on Acinetobacter baumannii [26] were 10% and 80%, respectively. The Activity in the data set on Staphylococcus aureus [12] is 50%; in the data set on Acinetobacter baumannii [22], above 60%. The “fold change (FC)” value came to 4 in the data set on Escherichia coli [28]; 4 in the data set with Acinetobacter baumannii [29]; 16 in the data set on Escherichia coli [15]; 16 with Acinetobacter baumannii [16]; 8 with Escherichia coli [17]; 8 in the data set with Acinetobacter baumannii [18].
As for `CC[C@H](C)[C@H](NC(=O)[C@@H](CCCNC(=N)N)NC(=O)[C@H](CO)NC(=O)[C@H](Cc1c[nH]cn1)NC(=O)[C@@H](CCCNC(=N)N)NC(=O)[C@H](CC(C)C)NC(=O)[C@@H](NC(=O)[C@@H](CCCNC(=N)N)NC(=O)CNC(=O)[C@H](CC(C)C)NC(=O)[C@H](CCC(N)=O)NC(=O)[C@@H](CCCCN)NC(=O)[C@@H](CCCNC(=N)N)NC(=O)[C@@H](NC(=O)[C@@H](CCCCN)NC(=O)[C@@H](CCCCN)NC(=O)[C@@H](N)Cc1ccccc1)C(C)C)C(C)C)C(=O)N[C@H](C(=O)N[C@H](C(=O)NCC(=O)NCC(=O)N[C@H](CCCNC(=N)N)C(=O)N[C@@H](CCSC)C(=O)N[C@H](CCCNC(=N)N)C(=O)N[C@@H](Cc1ccccc1)C(=O)O)C(C)C)[C@@H](C)O`, the MIC amounted to 18.8 µg/mL in the data set with Escherichia coli [2], 18.8 µg/mL with Acinetobacter baumannii [3] and 37.5 µg/mL in the data set with Salmonella enteritidis. Also, the hemolysis at 100 microg/ml in data set [4] was below 5%. Also, the metabolised at 24 h at Trypsin [30] was below 60%. The outcome in the data set with Escherichia coli [31], with Staphylococcus aureus [25] and in the data set with Escherichia coli [34] was inactive. For the same molecule, the outcome with Acinetobacter baumannii [10], in the data set on Escherichia coli [21] and in the data set on Acinetobacter baumannii [23] was Active. Besides, the “inhibition (INH)” value in the data set on Acinetobacter baumannii [26] is 80%. In addition, the values for the Activity in the data set with Acinetobacter baumannii [32], with Cell membrane [33] and in the data set with Acinetobacter baumannii [22] were 97.1%, 100% and above 60%, respectively.
